# Test results as given in US12371454B2, “Cyclic peptide compound having Kras inhibitory action” (priority 2019, dated 2025).
# pIC50: −log10 of the molar value. Starred links: 1 amine or outer side, 2 acyl side, 3 side chain; linkers in the order of their positions; H or OH if unused. Positions of bridges follow the written chain, without caps; N, C: chain ends. Non-standard residues stand in square brackets, D forms with d. Residues, ends and D or L forms follow the SMILES beside them. *: point of attachment. hPhe(3-Cl-4-CF3) = N[C@@H](CCc1ccc(C(F)(F)F)c(Cl)c1)C(=O)O; X19 = CC(C)(C)Oc1cc(CC[C@H](N[*:1])C(=O)[*:2])cc(Cl)c1Cl; hPhe(3-F,4-CF3) = N[C@@H](CCc1ccc(C(F)(F)F)c(F)c1)C(=O)O; X25 = CN([C@@H](Cc1ccc(C(F)F)cc1)C(=O)[*:2])[*:1]; 3Oxa8azabicyclo(3.2.1)octane = C1CC2COCC1N2*; NMeAbu(4,4,4-F3) = CN[C@@H](CC(F)(F)F)C(=O)O; NMePhe(4-Cl) = CN[C@@H](Cc1ccc(Cl)cc1)C(=O)O; NMePhe(4-Me) = CN[C@@H](Cc1ccc(C)cc1)C(=O)O; hPhe(4-Cl) = N[C@@H](CCc1ccc(Cl)cc1)C(=O)O; NMeGly(cPent) = CN[C@H](C(=O)O)C1CCCC1; NMe4Pal = CN[C@@H](Cc1ccncc1)C(=O)O; NMeCha = CN[C@@H](CC1CCCCC1)C(=O)O; NMeChg = CN[C@H](C(=O)O)C1CCCCC1; NMeI = CC[C@H](C)[C@H](NC)C(=O)O; Piperidide(4-Me) = CC1CCN(*)CC1; NMeD = CN[C@@H](CC(=O)O)C(=O)O; NMeL = CN[C@@H](CC(C)C)C(=O)O; NMeNva = CCC[C@H](NC)C(=O)O; NMeV = CN[C@H](C(=O)O)C(C)C; d(β3hA) = C[C@@H](N)CC(=O)O; dIva = CC[C@@](C)(N)C(=O)O; NMeS = CN[C@@H](CO)C(=O)O; Morpholide = C1CN(*)CCO1; NMeA = CN[C@@H](C)C(=O)O; Piperidide = C1CCN(*)CC1; Pyrrolidide = C1CCN(*)C1; Ac5c = NC1(C(=O)O)CCCC1; Aze = O=C(O)[C@@H]1CCN1; Cyclobutyl = C1CC(*)C1; X14 = CC1(C)CCN(*)C1; Sar = CNCC(=O)O; Propyl = CCC*
# Key:
# [1] = target: T1, Kras and SOS1 (biotin-tagged human Kras loaded with GDP, His-tagged human SOS1) (Homo sapiens, UniProt P01116, G12D); assay: Protein-protein interaction inhibition between Kras and SOS1 (KrasGl2D-SOS PPI) using AlphaScreen; format: binding; conditions: AlphaScreen; biotin-tagged human Kras loaded with GDP, His-tagged human SOS1; read-out: KRAS G12D-SOS PPI IC50
# T1 construct: made in house; host or cells: E. coli (stated for Kras only)
# T1 sequence (P01116 1-188 isoform P01116-2 G12D): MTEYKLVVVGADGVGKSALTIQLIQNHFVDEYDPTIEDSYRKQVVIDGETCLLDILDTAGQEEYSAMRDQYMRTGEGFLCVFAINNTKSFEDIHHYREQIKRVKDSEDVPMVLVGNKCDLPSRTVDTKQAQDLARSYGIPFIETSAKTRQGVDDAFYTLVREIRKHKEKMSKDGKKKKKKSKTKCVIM
# How it was run: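 Kras was produced in E. coli, purified, then loaded with GDP. It was paired via streptavidin acceptor beads with His-SOS1 held on nickel donor beads, and proximity signal at 520-620 nm was read after 680 nm illumination.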
# [2] = test system: Human pancreatic cancer cell line AsPC-1; assay: Measurement of AsPC-1 cell growth inhibition (AsPC-1 CGI); format: cell-based; conditions: 96 h
# How it was run: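 AsPC-1 cells in 15% FBS RPMI-1640 were exposed to test compound for 96 hours at 37° C, with CellTiter-Glo as endpoint.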
structure (smiles),measurement,setting,value
CC[C@H](C)[C@@H]1NC(=O)[C@H](CC(C)C)N(C)C(=O)C[C@@H](C(=O)N2CCC(C)CC2)NC(=O)[C@H]([C@@H](C)CC)N(C)C(=O)C2(CCCC2)NC(=O)[C@@H]2CCCN2C(=O)[C@H](CCc2ccc(C(F)(F)F)c(Cl)c2)NC(=O)CN(C)C(=O)[C@H](CC2CCCCC2)N(C)C(=O)CN(C)C(=O)CN(C)C1=O [Compound 1172] ([NMeL]I[Sar][Sar][NMeCha][Sar][hPhe(3-Cl-4-CF3)]P[Ac5c][NMeI]D-{Piperidide(4-Me)}; lactam N-11),pIC50,[1],8.17
same,pIC50,[2],6.30 to 7.00
CC[C@H](C)[C@@H]1NC(=O)[C@H](CC(C)C)N(C)C(=O)C[C@@H](C(=O)N2CCCCC2)N(C)C(=O)[C@H](C2CCCCC2)N(C)C(=O)C2(CCCC2)NC(=O)[C@H](Cc2ccncc2)N(C)C(=O)[C@H](CCc2ccc(C(F)(F)F)c(Cl)c2)NC(=O)CN(C)C(=O)[C@H](CC2CCCCC2)N(C)C(=O)[C@@H]2CCN2C(=O)CN(C)C1=O [Compound 480] ([NMeL]I[Sar][Aze][NMeCha][Sar][hPhe(3-Cl-4-CF3)][NMe4Pal][Ac5c][NMeChg][NMeD]-Piperidide; lactam N-11),pIC50,[1],8.85
same,pIC50,[2],6.30 to 7.00
CC[C@H](C)[C@@H]1NC(=O)[C@H](CC(C)C)N(C)C(=O)C[C@@H](C(=O)N2CCOCC2)N(C)C(=O)[C@H](C2CCCCC2)N(C)C(=O)C2(CCCC2)NC(=O)[C@@H]2CCCN2C(=O)[C@H](CCc2ccc(Cl)cc2)NC(=O)CN(C)C(=O)[C@H](CC2CCCCC2)N(C)C(=O)CN(C)C(=O)CN(C)C1=O [Compound 1941] ([NMeL]I[Sar][Sar][NMeCha][Sar][hPhe(4-Cl)]P[Ac5c][NMeChg][NMeD]-Morpholide; lactam N-11),pIC50,[1],8.82
same,pIC50,[2],7.00 to 7.30
CC[C@H](C)[C@@H]1NC(=O)[C@H](CC(C)C)N(C)C(=O)C[C@@H](C)NC(=O)[C@H](C(C)C)N(C)C(=O)C2(CCCC2)NC(=O)[C@@H]2CCCN2C(=O)[C@H](CCc2ccc(C(F)(F)F)c(Cl)c2)NC(=O)CN(C)C(=O)[C@H](Cc2ccc(Cl)cc2)N(C)C(=O)CN(C)C(=O)CN(C)C1=O [Compound 121] (cyclo([Ac5c][NMeV][d(β3hA)][NMeL]I[Sar][Sar][NMePhe(4-Cl)][Sar][hPhe(3-Cl-4-CF3)]P)),pIC50,[1],8.27
same,pIC50,[2],6.30 to 7.00
CC[C@H](C)[C@@H]1NC(=O)[C@H](CC(C)C)N(C)C(=O)C[C@@H](C(=O)N(C)C)N(C)C(=O)[C@H]([C@@H](C)CC)N(C)C(=O)C2(CCCC2)NC(=O)[C@H](Cc2ccc(C(F)F)cc2)N(C)C(=O)[C@H](CCc2ccc(C(F)(F)F)c(Cl)c2)NC(=O)CN(C)C(=O)[C@H](Cc2ccc(C)cc2)N(C)C(=O)[C@@H]2CCN2C(=O)[C@H](C)N(C)C1=O [Compound 1930] ([NMeL]I[NMeA][Aze][NMePhe(4-Me)][Sar][hPhe(3-Cl-4-CF3)][X25][Ac5c][NMeI][NMeD]-NMe2; lactam N-11),pIC50,[1],8.44
same,pIC50,[2],7.30 to 7.70
CC[C@H](C)[C@@H]1NC(=O)[C@H](CC(C)C)N(C)C(=O)C[C@@H](C(=O)N2CCCCC2)N(C)C(=O)[C@H](C(C)C)N(C)C(=O)[C@@](C)(CC)NC(=O)[C@@H]2CCCN2C(=O)[C@H](CCc2ccc(C(F)(F)F)c(Cl)c2)NC(=O)CN(C)C(=O)[C@H](CC2CCCCC2)N(C)C(=O)CN(C)C(=O)CN(C)C1=O [Compound 1130] ([NMeL]I[Sar][Sar][NMeCha][Sar][hPhe(3-Cl-4-CF3)]P[dIva][NMeV][NMeD]-Piperidide; lactam N-11),pIC50,[1],8.36
same,pIC50,[2],6.30 to 7.00
CC[C@H](C)[C@@H]1NC(=O)[C@H](CC(C)C)N(C)C(=O)C[C@@H](C(=O)N2C3CCC2COC3)N(C)C(=O)[C@H](C2CCCCC2)N(C)C(=O)C2(CCCC2)NC(=O)[C@@H]2CCCN2C(=O)[C@H](CCc2ccc(C(F)(F)F)c(Cl)c2)NC(=O)CN(C)C(=O)[C@H](Cc2ccc(C)cc2)N(C)C(=O)CN(C)C(=O)CN(C)C1=O [Compound 1869] ([NMeL]I[Sar][Sar][NMePhe(4-Me)][Sar][hPhe(3-Cl-4-CF3)]P[Ac5c][NMeChg][NMeD]-{3Oxa8azabicyclo(3.2.1)octane}; lactam N-11),pIC50,[1],9.12
same,pIC50,[2],7.00 to 7.30
"CC[C@H](C)[C@@H]1NC(=O)[C@H](CC(F)(F)F)N(C)C(=O)C[C@@H](C(=O)N2C3CCC2COC3)N(C)C(=O)[C@H](C2CCCCC2)N(C)C(=O)C2(CCCC2)NC(=O)[C@@H]2CCCN2C(=O)[C@H](CCc2ccc(C(F)(F)F)c(Cl)c2)NC(=O)CN(C)C(=O)[C@H](Cc2ccc(C)cc2)N(C)C(=O)CN(C)C(=O)CN(C)C1=O [Compound 683] ([NMeAbu(4,4,4-F3)]I[Sar][Sar][NMePhe(4-Me)][Sar][hPhe(3-Cl-4-CF3)]P[Ac5c][NMeChg][NMeD]-{3Oxa8azabicyclo(3.2.1)octane}; lactam N-11)",pIC50,[1],9.21
same,pIC50,[2],7.00 to 7.30
CC[C@H](C)[C@@H]1NC(=O)[C@H](C)N(C)C(=O)C[C@@H](C(=O)N2CCCCC2)N(C)C(=O)[C@H](C(C)C)N(C)C(=O)C2(CCCC2)NC(=O)[C@@H]2CCCN2C(=O)[C@H](CCc2cc(Cl)c(Cl)c(OC(C)(C)C)c2)NC(=O)CN(C)C(=O)[C@H](CC2CCCCC2)N(C)C(=O)CN(C)C(=O)CN(C)C1=O [Compound 2073] ([NMeA]I[Sar][Sar][NMeCha][Sar][X19]P[Ac5c][NMeV][NMeD]-Piperidide; lactam N-11),pIC50,[1],7.92
same,pIC50,[2],< 6.30
CC[C@H](C)[C@@H]1NC(=O)[C@H](CC(C)C)N(C)C(=O)C[C@@H](C(=O)N2CCC(C)(C)C2)N(C)C(=O)[C@H](C(C)C)N(C)C(=O)C2(CCCC2)NC(=O)[C@@H]2CCCN2C(=O)[C@H](CCc2ccc(C(F)(F)F)c(Cl)c2)NC(=O)CN(C)C(=O)[C@H](CC2CCCCC2)N(C)C(=O)[C@@H]2CCN2C(=O)[C@H](C)N(C)C1=O [Compound 1323] ([NMeL]I[NMeA][Aze][NMeCha][Sar][hPhe(3-Cl-4-CF3)]P[Ac5c][NMeV][NMeD]-X14; lactam N-11),pIC50,[1],8.37
same,pIC50,[2],6.30 to 7.00
CCCOC[C@H]1C(=O)N(C)CC(=O)N[C@@H](CCc2ccc(C(F)(F)F)c(Cl)c2)C(=O)N2CCC[C@H]2C(=O)NC2(CCCC2)C(=O)N(C)[C@@H](C2CCCCC2)C(=O)N(C)[C@H](C(=O)N2C3CCC2COC3)CC(=O)N(C)[C@@H](CCC)C(=O)N[C@@H]([C@@H](C)CC)C(=O)N(C)CC(=O)N(C)CC(=O)N1C [Compound 1971] ([NMeNva]I[Sar][Sar][NMeS](Propyl)[Sar][hPhe(3-Cl-4-CF3)]P[Ac5c][NMeChg][NMeD]-{3Oxa8azabicyclo(3.2.1)octane}; lactam N-11),pIC50,[1],8.96
same,pIC50,[2],6.30 to 7.00
CC[C@H](C)[C@@H]1NC(=O)[C@H](CC(C)C)N(C)C(=O)C[C@@H](C(=O)N2CCCCC2)N(C)C(=O)[C@H](C2CCCCC2)N(C)C(=O)C2(CCCC2)NC(=O)[C@@H]2CCCN2C(=O)[C@H](CCc2ccc(C(F)(F)F)c(Cl)c2)NC(=O)CN(C)C(=O)[C@H](C(C)C)N(C)C(=O)CN(C)C(=O)CN(C)C1=O [Compound 1829] ([NMeL]I[Sar][Sar][NMeV][Sar][hPhe(3-Cl-4-CF3)]P[Ac5c][NMeChg][NMeD]-Piperidide; lactam N-11),pIC50,[1],8.82
same,pIC50,[2],6.30 to 7.00
"CC[C@H](C)[C@@H]1NC(=O)[C@H](CC(C)C)N(C)C(=O)C[C@@H](C(=O)N2CCOCC2)N(C)C(=O)[C@H]([C@@H](C)CC)N(C)C(=O)C2(CCCC2)NC(=O)[C@@H]2CCCN2C(=O)[C@H](CCc2ccc(C(F)(F)F)c(F)c2)NC(=O)CN(C)C(=O)[C@H](C2CCCC2)N(C)C(=O)[C@@H]2CCN2C(=O)[C@H](C)N(C)C1=O [Compound 1098] ([NMeL]I[NMeA][Aze][NMeGly(cPent)][Sar][hPhe(3-F,4-CF3)]P[Ac5c][NMeI][NMeD]-Morpholide; lactam N-11)",pIC50,[1],8.25
same,pIC50,[2],7.30 to 7.70
CC[C@H](C)[C@@H]1NC(=O)[C@H](CC(C)C)N(C)C(=O)C[C@@H](C(=O)N2CCCC2)N(C)C(=O)[C@H](C(C)C)N(C)C(=O)C2(CCCC2)NC(=O)[C@@H]2CCCN2C(=O)[C@H](CCc2ccc(C(F)(F)F)c(Cl)c2)NC(=O)CN(C)C(=O)[C@H](CC2CCCCC2)N(C)C(=O)CN(C)C(=O)CN(C)C1=O [Compound 1711] ([NMeL]I[Sar][Sar][NMeCha][Sar][hPhe(3-Cl-4-CF3)]P[Ac5c][NMeV][NMeD]-Pyrrolidide; lactam N-11),pIC50,[1],9.11
same,pIC50,[2],6.30 to 7.00
CC[C@H](C)[C@@H]1NC(=O)[C@H](COC2CCC2)N(C)C(=O)C[C@@H](C(=O)N2CCCCC2)N(C)C(=O)[C@H](C2CCCCC2)N(C)C(=O)C2(CCCC2)NC(=O)[C@@H]2CCCN2C(=O)[C@H](CCc2ccc(C(F)(F)F)c(Cl)c2)NC(=O)CN(C)C(=O)[C@H](CC2CCCCC2)N(C)C(=O)CN(C)C(=O)CN(C)C1=O [Compound 699] ([NMeS](Cyclobutyl)I[Sar][Sar][NMeCha][Sar][hPhe(3-Cl-4-CF3)]P[Ac5c][NMeChg][NMeD]-Piperidide; lactam N-11),pIC50,[1],9.08
same,pIC50,[2],7.00 to 7.30
"CC[C@H](C)[C@@H]1NC(=O)[C@H](CC(C)C)N(C)C(=O)C[C@@H](C(=O)N2CCCCC2)N(C)C(=O)[C@H](C(C)C)N(C)C(=O)C2(CCCC2)NC(=O)[C@@H]2CCCN2C(=O)[C@H](CCc2ccc(C(F)(F)F)c(F)c2)NC(=O)CN(C)C(=O)[C@H](Cc2ccc(Cl)cc2)N(C)C(=O)CN(C)C(=O)CN(C)C1=O [Compound 229] ([NMeL]I[Sar][Sar][NMePhe(4-Cl)][Sar][hPhe(3-F,4-CF3)]P[Ac5c][NMeV][NMeD]-Piperidide; lactam N-11)",pIC50,[1],8.17
same,pIC50,[2],6.30 to 7.00
